Assay results taken from patent publication US9079913B2, “Spiro-oxindole MDM2 antagonists” (The Regents of the University of Michigan, priority 2009, dated 2015).
Like-named read-outs stand apart in the source and are kept apart here.

How the values were obtained:
[1] = tested on: Isogenic HCT-116 colon cancer cell lines; test: cells; type: cell-based;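 note: cells grown in 96-well plates in McCoy's 5A medium with 10% FBS, exposed to compound for 4 days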
Description: Cells were seeded in 96-well flat bottom cell culture plates at a density of 2−3×10^3 cells/well with compounds and incubated for 4 days.

[2] = target: recombinant human His-tagged MDM2 protein (residues 1-118) (Homo sapiens (Human), UniProt Q00987); test: Fluorescence-polarization MDM2 binding assay;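 note: fluorescence polarization read after three hours of incubation in potassium phosphate buffer containing bovine gamma globulin and Triton X-100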
[3] = tested on: cancer cell lines with wild-type p53 / mutated or deleted p53 (ATCC); test: Cell growth assay (WST-8), other cancer cell lines; type: cell-based
[4] = Homo sapiens, HCT-116, read-out: Cell growth inhibition using WST assay, HCT116 p53KO IC50, Table 19C, HCT116 p53KO
[5] = Homo sapiens, HCT-116, read-out: Cell growth inhibition using WST assay, HCT116 p53WT IC50, Table 19C, HCT116 p53WT
[6] = Table 19C, read-out: Bidning affinities to MDM2 as determined using FP assay IC50
[7] = Homo sapiens, LNCaP, Table 19C, LNCaP cells, read-out: Cell growth inhibition using WST assay, LNCaP IC50
[8] = Homo sapiens, PC-3, Table 19C, PC3 cells, read-out: Cell growth inhibition using WST assay, PC3 IC50
[9] = Homo sapiens, HCT-116, read-out: HCT-116 (p53 wild-type) IC50, Table 19A, HCT-116 p53 wild-type, cell growth
[10] = Table 19A, FP binding assay, read-out: MDM2 IC50
[11] = Homo sapiens, LNCaP, Table 19A, LNCAP cells, p53 wild-type, cell growth, read-out: LNCAP (p53 wild-type) IC50
[12] = Homo sapiens, SJSA-1, Table 19A, SJSA-1 cells, p53 wild-type, cell growth, read-out: SJSA-1 (p53 wild-type) IC50
[13] = Homo sapiens, HCT-116, read-out: HCT116p53KO IC50, Table 19D, HCT116 p53KO
[14] = Homo sapiens, HCT-116, read-out: HCT116p53WT IC50, Table 19D, HCT116 p53WT
[15] = Table 19D, read-out: MDM2 Binding Affinities IC50
[16] = Homo sapiens, LNCaP, Table 19D, LNCaP cells, read-out: LNCaP IC50
[17] = Homo sapiens, PC-3, Table 19D, PC3 cells, read-out: PC3 IC50
[18] = Homo sapiens, HCT-116, read-out: HCT-116 (p53-/-) IC50, Table 19A, HCT-116 p53-/-, cell growth
[19] = Homo sapiens, PC-3, Table 19A, PC-3 cells, deleted p53, cell growth, read-out: PC-3 (deleted p53) IC50
[20] = Homo sapiens, HCT-116, read-out: Inhibition of cell growth IC50, HCT116 p53 KO, Table 19B, HCT116 p53 KO
[21] = Homo sapiens, HCT-116, read-out: Inhibition of cell growth IC50, HCT116 p53 WT, Table 19B, HCT116 p53 WT
[22] = Table 19B, read-out: Binding affinities to MDM2 protein as determined by FP based assay IC50
[23] = Homo sapiens, LNCaP, Table 19B, LNCaP cells, read-out: Inhibition of cell growth IC50, LNCaP
[24] = Homo sapiens, PC-3, Table 19B, PC3 cells, read-out: Inhibition of cell growth IC50, PC3
[25] = read-out: Inhibition of cell growth IC50, HCT116 p53 KO, Table 19B, HCT116 p53 KO
[26] = read-out: Inhibition of cell growth IC50, HCT116 p53 WT, Table 19B, HCT116 p53 WT
[27] = Table 19B, LNCaP cells, read-out: Inhibition of cell growth IC50, LNCaP
[28] = Table 19B, PC3 cells, read-out: Inhibition of cell growth IC50, PC3

Chain of recombinant human His-tagged MDM2 protein (residues 1-118) (Q00987 1-118): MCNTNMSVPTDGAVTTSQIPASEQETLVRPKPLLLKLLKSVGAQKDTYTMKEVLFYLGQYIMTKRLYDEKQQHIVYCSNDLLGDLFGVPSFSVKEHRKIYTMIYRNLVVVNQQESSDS

CNC[C@@H](O)CCNC(=O)[C@@H]1N[C@H](CC(C)(C)C)[C@]2(C(=O)Nc3cc(Cl)c(F)cc32)[C@H]1c1ccc(F)c(Cl)c1 [MI-319-30]
IC50 [1, 4]: > 10 µM
IC50 [1, 5]: > 10 µM
IC50 [2, 6]: < 5 µM
IC50 [3, 7]: > 5 µM
IC50 [3, 8]: > 10 µM

CC(C)(C)C[C@H]1N[C@@H](C(=O)NC2CCC(N)CC2)[C@H](c2cccc(Cl)c2)[C@@]12C(=O)Nc1cc(Cl)c(F)cc12 (some centres unmarked) [MI-776]
IC50 [1, 9]: 2.7 µM
IC50 [2, 10]: < 1 µM
IC50 [3, 11]: 2.4 µM
IC50 [3, 12]: 3.2 µM

CC(C)(C)C[C@H]1N[C@@H](C(=O)N[C@H]2CC[C@@H](N)C2)[C@H](c2cccc(Cl)c2F)[C@@]12C(=O)Nc1cc(Cl)ccc12 [MI-519-55]
IC50 [1, 13]: > 5 µM
IC50 [1, 14]: < 2 µM
IC50 [2, 15]: < 1 µM
IC50 [3, 16]: < 2 µM
IC50 [3, 17]: > 3 µM
IC50 ([3]; Homo sapiens, Table 19D, SJSA-1 cells, unit inferred, read-out: SJSA-1): < 3 µM

CC(O)C(O)CCNC(=O)[C@@H]1N[C@H](CC(C)(C)C)[C@]2(C(=O)Nc3cc(Cl)c(F)cc32)[C@H]1c1cccc(Cl)c1 (some centres unmarked) [MI-519-30]
IC50 [1, 18]: 19.6 ± 5.2 µM
IC50 [1, 9]: 1.3 ± 0.3 µM
IC50 [2, 10]: < 2 µM
IC50 [3, 11]: 1.1 µM
IC50 [3, 19]: 19.1 ± 2.4 µM

CN1[C@@H](C(=O)NCC[C@H](O)CO)[C@H](c2cccc(Cl)c2F)[C@@]2(C(=O)Nc3cc(F)c(F)cc32)[C@H]1CC(C)(C)C [MI-519-10-me]
IC50 [1, 13]: > 30 µM
IC50 [1, 14]: > 1 µM
IC50 [2, 15]: < 10 µM
IC50 [3, 16]: > 1 µM
IC50 [3, 17]: > 30 µM

CC(C)(C)C[C@H]1N[C@@H](C(=O)NC2CCN(CCO)CC2)[C@H](c2cccc(Cl)c2F)[C@@]12C(=O)Nc1cc(Cl)ccc12 [MI-784]
IC50 [1, 18]: 10.3 µM
IC50 [1, 9]: 0.4 µM
IC50 [2, 10]: < 0.5 µM
IC50 [3, 12]: 0.7 µM

CC(C)(C)C[C@H]1N[C@@H](C(=O)NCC[C@H](O)CO)[C@H](c2cccc(F)c2)[C@@]12C(=O)Nc1cc(F)c(F)cc12 [MI-519-11]
IC50 [1, 13]: > 10 µM
IC50 [1, 14]: > 5 µM
IC50 [2, 15]: > 5 µM
IC50 [3, 16]: > 5 µM
IC50 [3, 17]: > 10 µM

CN(C)CC(=O)N1CCN(C(=O)[C@@H]2N[C@H](CC(C)(C)C)[C@]3(C(=O)Nc4cc(Cl)c(F)cc43)[C@H]2c2cccc(Cl)c2)CC1 [MI-744]
IC50 [1, 18]: 5.7 ± 3.4 µM
IC50 [1, 9]: 2.4 ± 0.2 µM
IC50 [2, 10]: < 10 µM
IC50 [3, 11]: 1.7 ± 0.1 µM
IC50 [3, 19]: 7.7 ± 3.1 µM

O=C(NCC[C@H](O)CO)[C@@H]1N[C@H](CCc2ccsc2)[C@]2(C(=O)Nc3cc(Cl)c(F)cc32)[C@H]1c1cccc(Cl)c1 [MI-707]
IC50 [1, 20]: 1.3 ± 0.2 µM
IC50 [1, 21]: 0.6 ± 0.1 µM
IC50 [2, 22]: < 5 µM
IC50 [3, 23]: 0.3 µM
IC50 [3, 24]: 4.6 ± 2.9 µM

CC(C)(C)C[C@H]1N[C@@H](C(=O)NCCC2CCC(O)C2)[C@H](c2cccc(Cl)c2)[C@@]12C(=O)Nc1cc(F)c(F)cc12 (some centres unmarked) [MI-519-26]
IC50 ([1]; read-out: HCT116p53KO IC50, Table 19D, HCT116 p53KO): > 10 µM
IC50 ([1]; read-out: HCT116p53WT IC50, Table 19D, HCT116 p53WT): < 5 µM
IC50 [2, 15]: < 10 µM
IC50 ([3]; Table 19D, LNCaP cells, read-out: LNCaP IC50): < 5 µM
IC50 ([3]; Table 19D, PC3 cells, read-out: PC3 IC50): > 10 µM

CC(C)(C)C[C@H]1N[C@@H](C(=O)NCC[C@H](O)CO)[C@H](c2ccc(F)c(Cl)c2)[C@@]12C(=O)Nc1cc(F)c(F)cc12 [MI-519-8]
IC50 [1, 13]: > 10 µM
IC50 [1, 14]: < 5 µM
IC50 [2, 15]: < 3 µM
IC50 [3, 16]: < 5 µM
IC50 [3, 17]: > 10 µM

O=C(NCC[C@H](O)CO)[C@@H]1N[C@H](CC2CC2)[C@]2(C(=O)Nc3cc(Cl)c(F)cc32)[C@H]1c1cccc(Cl)c1 [MI-706]
IC50 [1, 20]: 1.3 ± 0.2 µM
IC50 [1, 21]: 0.6 ± 0.1 µM
IC50 [2, 22]: < 10 µM
IC50 [3, 23]: 0.3 µM
IC50 [3, 24]: 4.6 ± 2.9 µM

O=C(NCC[C@H](O)CO)[C@@H]1N[C@H](CC2CCCCC2)[C@]2(C(=O)Nc3cc(Cl)c(F)cc32)[C@H]1c1cccc(Cl)c1 [MI-716B]
IC50 [1, 25]: 11.5 ± 0.7 µM
IC50 [1, 26]: 0.6 ± 0.2 µM
IC50 [2, 22]: < 1 µM
IC50 [3, 27]: 0.86 ± 0.3 µM
IC50 [3, 28]: 9 ± 2.8 µM

CC(C)(C)C[C@H]1N[C@@H](C(=O)NCCC(=O)CO)[C@H](c2cccc(Cl)c2)[C@@]12C(=O)Nc1cc(Cl)c(F)cc12 [MI-219-M1 (b)]
IC50 [1, 18]: > 10 µM
IC50 [1, 9]: < 3 µM
IC50 [2, 10]: < 1 µM
IC50 [3, 11]: < 3 µM
IC50 [3, 19]: > 10 µM

CN1[C@@H](C(=O)NCC[C@H](O)CO)[C@H](c2cccc(Cl)c2)[C@@]2(C(=O)Nc3cc(Cl)c(F)cc32)[C@H]1CC(C)(C)C [MI-717]
IC50 [1, 25]: 47.8 ± 1.4 µM
IC50 [1, 26]: 2.2 ± 0.1 µM
IC50 [2, 22]: > 3 µM
IC50 [3, 27]: 2.7 ± 0.6 µM
IC50 [3, 28]: 31.5 ± 1.4 µM

CN1[C@@H](C(=O)NCC[C@H](O)CO)[C@H](c2cccc(Cl)c2)[C@@]2(C(=O)Nc3cc(Cl)c(F)cc32)[C@H]1CCCc1ccccc1 [MI-709]
IC50 [1, 20]: 9.4 ± 1.2 µM
IC50 [1, 21]: 9.9 ± 1.7 µM
IC50 [2, 22]: > 10 µM
IC50 [3, 23]: 5.6 ± 1.1 µM
IC50 [3, 24]: 7.2 ± 1.4 µM

CC(C)CC[C@H]1N[C@@H](C(=O)NCC[C@H](O)CO)[C@H](c2cccc(Cl)c2)[C@@]12C(=O)Nc1cc(Cl)c(F)cc12 [MI-705]
IC50 [1, 20]: 32 ± 33.3 µM
IC50 [1, 21]: 4.4 ± 4 µM
IC50 [2, 22]: < 10 µM
IC50 [3, 23]: 1.4 ± 0.8 µM
IC50 [3, 24]: 43.9 ± 31.7 µM

CC(C)(C)C[C@H]1N[C@@H](C(=O)NCC[C@H](O)CO)[C@H](c2cccc(Cl)c2)[C@@]12C(=O)Nc1cc(F)ccc12 [MI-519-15]
IC50 [1, 13]: > 10 µM
IC50 [1, 14]: < 3 µM
IC50 [2, 15]: < 1 µM
IC50 [3, 16]: < 5 µM
IC50 [3, 17]: > 10 µM

O=C(NCC[C@H](O)CO)[C@@H]1N[C@H](CC2CCCCC2)[C@]2(C(=O)Nc3cc(Cl)c(F)cc32)[C@H]1c1cccc(Cl)c1 [MI-716A]
IC50 [1, 20]: > 10 µM
IC50 [1, 21]: 1 ± 0.5 µM
IC50 [2, 22]: < 3 µM
IC50 [3, 23]: 1.1 ± 0.5 µM
IC50 [3, 24]: 11.5 ± 0.5 µM

CC(C)(C)C[C@H]1N[C@@H](C(=O)NCC[C@H](O)CO)[C@H](c2cncc(Cl)c2)[C@@]12C(=O)Nc1cc(Cl)c(F)cc12 [MI-319-34]
IC50 [1, 4]: > 30 µM
IC50 [1, 5]: 9.5 ± 2.1 µM
IC50 [2, 6]: < 10 µM
IC50 [3, 7]: < 10 µM
IC50 [3, 8]: > 30 µM

CN1[C@@H](C(=O)NCC[C@H](O)CO)[C@H](c2cccc(Cl)c2)[C@@]2(C(=O)Nc3cc(F)ccc32)[C@H]1CC(C)(C)C [MI-519-15-me]
IC50 [1, 13]: > 10 µM
IC50 [1, 14]: 5.2 µM
IC50 [2, 15]: < 5 µM
IC50 [3, 16]: 6.4 µM
IC50 [3, 17]: > 10 µM
